Laboratory results: patent US9765075B2, “Substituted bridged urea analogs as sirtuin modulators” (GLAXOSMITHKLINE LLC, priority 2013, dated 2017)
Changes are numbered by the printed parent chain. Counter-ions that a name gives are not always drawn.

Legend:
Assay in all cases: SIRT1 inhibition assay, OAcADPr mass spectrometry
Type in all cases: biochemical
full-length hSIRT1 N226A = target: T1, full-length hSIRT1 N226A (Homo sapiens, UniProt Q96EB6, N226A)
T1 construct: The following point mutants of full-length hSIRT1 were generated; His6 (C); made in house
T1 sequence (Q96EB6 1-747 N226A): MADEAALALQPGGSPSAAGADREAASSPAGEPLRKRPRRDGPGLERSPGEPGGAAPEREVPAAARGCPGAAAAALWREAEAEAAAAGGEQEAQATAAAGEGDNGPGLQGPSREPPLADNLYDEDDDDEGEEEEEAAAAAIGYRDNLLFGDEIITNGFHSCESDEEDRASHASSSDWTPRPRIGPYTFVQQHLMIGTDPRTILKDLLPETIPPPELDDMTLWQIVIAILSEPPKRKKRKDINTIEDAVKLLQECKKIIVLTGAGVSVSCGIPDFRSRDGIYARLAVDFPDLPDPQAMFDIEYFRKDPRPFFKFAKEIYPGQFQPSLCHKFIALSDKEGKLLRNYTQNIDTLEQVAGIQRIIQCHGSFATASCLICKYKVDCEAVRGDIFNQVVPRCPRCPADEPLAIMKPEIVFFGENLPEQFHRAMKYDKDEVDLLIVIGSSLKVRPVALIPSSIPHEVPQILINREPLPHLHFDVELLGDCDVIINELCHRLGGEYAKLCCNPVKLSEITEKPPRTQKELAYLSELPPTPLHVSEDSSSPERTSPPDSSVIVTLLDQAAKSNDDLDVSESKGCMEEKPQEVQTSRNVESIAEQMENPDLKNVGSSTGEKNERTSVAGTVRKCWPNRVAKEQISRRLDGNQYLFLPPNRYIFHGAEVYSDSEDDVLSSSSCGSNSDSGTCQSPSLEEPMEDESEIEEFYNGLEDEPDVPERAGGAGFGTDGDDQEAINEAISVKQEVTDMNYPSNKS
Method: (§1) SIRT1 activation and inhibition assays were run in reaction buffer with 0.05% BSA at 25° C. and analyzed using the OAcADPr assay. Enzyme and compound were pre-incubated for 20 minutes before addition of substrates.

full-length hSIRT1 E230Q = target: T2, full-length hSIRT1 E230Q (Homo sapiens, UniProt Q96EB6, E230Q)
T2 construct: His6 (C); made in house
T2 sequence (Q96EB6 1-747 E230Q): T1 sequence (Q96EB6 1-747 N226A) with A226N, E230Q
Method: as §1

full-length hSIRT1 I227A = target: T3, full-length hSIRT1 I227A (Homo sapiens, UniProt Q96EB6, I227A)
T3 construct: The following point mutants of full-length hSIRT1 were generated; His6 (C); made in house
T3 sequence (Q96EB6 1-747 I227A): T1 sequence (Q96EB6 1-747 N226A) with A226N, I227A
Method: SIRT1 activation and inhibition assays were run in reaction buffer with 0.05% BSA at 25° C. and analyzed using the OAcADPr assay. Enzyme and compound were pre-incubated for 20 minutes before addition of substrates. […] In order to be sensitive to KM-modulating activators, substrate concentrations of approximately one-tenth their KM values were used (see Table 5).

SMILES: CCCC[C@H](NC(=O)[C@H](CC(C)C)NC(=O)[C@H](CCCCNC(=O)C(F)(F)F)NC(=O)[C@H](CCCCN)NC(=O)[C@H](Cc1c[nH]cn1)NC(=O)[C@H](CCCNC(=N)N)NC(C)=O)C(=O)N[C@@H](Cc1ccccc1)C(N)=O [TFA-p53 7-mer, Ac-RHK-K^TFA-L-Nle-F-NH2]
- IC50 (full-length hSIRT1 N226A): 350 ± 40 nM
- IC50 (full-length hSIRT1 E230Q): 860 ± 60 nM
- IC50 (full-length hSIRT1 I227A): 940 ± 60 nM
